Measured values taken from patent publication US11213535B2, “Composition containing phytic acid, magnesium and polyphenols for the treatment or prevention of renal lithiasis” (UNIVERSITAT DE LES ILLES BALEARS, priority 2014, dated 2022).

Experiment: induction time of calcium oxalate crystallization in synthetic urine
Conditions: 200 mg/L calcium and 50 mg/L oxalate
Protocol: Thus, when there is neither magnesium nor phytate, the calcium oxalate takes 1 minute to crystallize. This time increases up to 10 minutes when […] magnesium is added and, in turn, it increases up to 44 minutes if, in addition to the 10 mg/L magnesium, 1 mg/L phytate is added.

Structure (SMILES) | induction times of crystallization t (0 mg/L phytate, 25 mg/L Mg) [min] | induction times of crystallization t (0 mg/L phytate, 75 mg/L Mg) [min] | induction times of crystallization t (0 mg/L phytate, 100 mg/L Mg) [min] | time calcium oxalate takes to crystallize (induction time) (100 mg/L magnesium, no phytate) [min] | induction times of crystallization t (0.5 mg/L phytate, 0 mg/L Mg) [min] | induction times of crystallization t (0.75 mg/L phytate, 0 mg/L Mg) [min] | induction times of crystallization t (1 mg/L phytate, 0 mg/L Mg) [min]
[Mg+2] [Mg, magnesium] | 1.5 | 6 | 10 | 10 | – | – | –
O=P(O)(O)O[C@H]1[C@H](OP(=O)(O)O)[C@@H](OP(=O)(O)O)[C@H](OP(=O)(O)O)[C@@H](OP(=O)(O)O)[C@H]1OP(=O)(O)O [phytate, myo-inositol-hexaphosphate] | – | – | – | – | 3 | 4 | 6.5
